US20250281617A1, “Drug Delivery System” (The University of Birmingham, priority 2019, published 2025)
Like-named read-outs stand apart in the source and are kept apart here.

How the values were obtained:
[1] = Delivery of lutein across chicken egg epithelial membrane with polyamine/amine carrier
Description: The membrane was washed in deionized water.
Lutein is a naturally occurring carotenoid that reduces the progression of age-related macular degeneration and cataracts. Lutein has a characteristic absorbance which can be measured using a plate reader, and thus it was not necessary to label the lutein with FAM. The absorbance of the solution which had crossed the membrane was measured and compared to the absorbance of the stock solution.

[2] = chicken, 60 seconds
[3] = chicken, 60 seconds; remark: listed apart in the source
[4] = Delivery of fluorescence-labelled bevacizumab into the posterior segment of ex vivo porcine eyes; format: in vitro ADME; conditions: various incubation times
Description: Further tests on porcine eyes was carried out with fluorescence-labelled bevacizumab. […] The same methodology as described in Example 3 was used, but with various incubation times.

[5] = Delivery of fluorescent (FAM-tagged) peptide across chicken egg epithelial membrane with polyamine/amine carrier; conditions: fold versus control without carrier; Example 5
[6] = Delivery of fluorescence-labelled bevacizumab across chicken egg epithelial membrane with polyamine/amine carrier; conditions: for improvement in the amount of bevacizumab transported across the membrane: versus control without carrier; for improvement in the amount of bevacizumab transported across the membrane / amount of bevacizumab transported across the membrane compared to the control sample: Example 5; for amount of bevacizumab transported across the membrane compared to the control sample: fold versus control without carrier
[7] = versus control without carrier, Example 5

% peptide transported across membrane ([1]; chicken, 60 seconds) [%] | amount of lutein transported across the membrane (bound stated in text) ([1]; chicken, 60 seconds) [%] | % peptide transported across membrane [2] [%] | SMILES | also measured
10.7 | > 5 | 4.0 | CCCCNCCCC [Dibutylamine] | –
11.5 | > 5 | 19.7 | NCCNCCNCCNCCN [Tetraethylenepentamine] | % peptide transported across membrane [3]: 28.8%
6.5 | > 5 | 3.4 | CNCCCN [3-(Methylamino)propylamine] | –
27.8 | > 20 | 28.1 | NCCCNCCCCNCCCN [Spermine] | effect of longer incubation time on amount of bevacizumab transported into the eye tissue [4]: did not result in higher delivery; amount of peptide transported across the membrane compared with the control test [5]: twice as much peptide
19.5 | > 5 | 32.4 | NCCCNCCCNCCCN [N,N′-Bis(3-aminopropyl)-1,3-propanediamine] | amount of peptide transported across the membrane compared with the control test [5]: five times more peptide
22.0 | > 20 | 14.1 | NCCCNCCNCCCN [1,2-Bis(3-aminopropylamino)ethane] | amount of peptide transported across the membrane compared with the control test [5]: twice as much peptide
4.7 | – | 11.4 | NCCN(CCN)CCN [Tris(2-aminoethyl)amine] | % peptide transported across membrane [3]: 41.0%
25.7 | > 20 | 22.3 | NCCCCNCCCN [Spermidine] | effect of longer incubation time on amount of bevacizumab transported into the eye tissue [4]: increased with increasing incubation time; amount of peptide transported across the membrane compared with the control test [5]: five times more peptide
12.7 | > 5 | 6.9 | NCCCCN [Putrescine] | –

More lines, now with the values behind:

SMILES | % peptide transported across membrane ([1]; chicken, 60 seconds) [%] | amount of lutein transported across the membrane (bound stated in text) ([1]; chicken, 60 seconds) [%] | % peptide transported across membrane [2] [%] | also measured
N=C(N)N [Guanidine] | 8.0 | > 5 | 4.0 | % peptide transported across membrane [3]: 7.9%
NC(N)=O [Urea] | – | – | – | % peptide transported across membrane [1]: 1.7%
NCCc1ccc(O)cc1 [Tyramine] | 14.1 | > 5 | 5.8 | % peptide transported across membrane [3]: 11.3%
CCN(CC)CC [Triethylamine] | 2.2 | – | 7.1 | improvement in the amount of lutein transported across the membrane [1]: did not significantly improve
NCCN [Ethylenediamine] | 2.3 | – | 5.7 | improvement in the amount of lutein transported across the membrane [1, 7]: did not significantly improve; improvement in the amount of bevacizumab transported across the membrane [6]: did not significantly improve
NCCCNCCCN [Bis(3-aminopropyl)amine] | – | – | – | amount of peptide transported across the membrane compared with the control test [5]: five times more peptide; amount of bevacizumab transported across the membrane compared to the control sample [6]: more than twice as much
CNCCN [N-Methylethylenediamine] | – | – | – | % peptide transported across membrane [1]: 20.9%; amount of lutein transported across the membrane (bound stated in text) [1]: > 20%
CC(C)N(CCN)C(C)C [N,N-Diisopropylethylenediamine] | 6.7 | > 5 | 9.1 | % peptide transported across membrane [3]: 3.3%
NCCCN [1,3-Diaminopropane] | – | – | – | % peptide transported across membrane ([1]; Table 2, lutein with the named polyamine or amine moiety, methodology of Example 1): 0.2%; improvement in the amount of lutein transported across the membrane [1, 7]: did not significantly improve; % peptide transported across membrane ([6]; Table 3, fluorescence-labelled bevacizumab with the named polyamine or amine moiety, methodology of Example 1): 4.4%; improvement in the amount of bevacizumab transported across the membrane [6]: did not significantly improve
NCCC(=O)N[C@@H](Cc1cnc[nH]1)C(=O)O [L-Carnosine] | – | – | – | % peptide transported across membrane [1]: 7.4%; amount of lutein transported across the membrane (bound stated in text) [1]: > 5%
NCCCCCN [Cadaverine] | – | – | – | amount of bevacizumab transported across the membrane compared to the control sample [6]: more than twice as much
CC1=C[C@H](O)CC(C)(C)[C@H]1/C=C/C(C)=C/C=C/C(C)=C/C=C/C=C(C)/C=C/C=C(C)/C=C/C1=C(C)C[C@@H](O)CC1(C)C [lutein, Lutein, reference compound] | – | – | – | lutein crossed the membrane ([1]; chicken, 60 seconds): about 6%; lutein transported across the membrane ([1]; chicken, 60 seconds): 0.5%
